Measurements: patent US12187712B2, “Cardiac sarcomere inhibitors” (Cytokinetics, Inc., priority 2018, dated 2025)

Molecular target: T1, bovine cardiac myofibrils (Bos taurus, UniProt Q9BE39)
T1 construct: full-length cardiac myosin in the context of the native sarcomere, skinned myofibril assays were performed; from tissue; host or cells: bovine cardiac left ventricular tissue, detergent-skinned (Triton X-100) myofibrils
Assay: Skinned myofibril ATPase assay (PK/LDH-coupled), CDMF75
Format: biochemical
Conditions: inhibition of steady-state ATPase activity of bovine cardiac myofibrils at 75% Ca2+ activation (pCa75)
Experimental: To evaluate the effect of compounds on the ATPase activity of full-length cardiac myosin in the context of the native sarcomere, skinned myofibril assays were performed. Bovine cardiac myofibrils were obtained by homogenizing bovine cardiac left ventricular tissue in the presence of a detergent such as triton X-100. Such treatment removes membranes and a majority of the soluble cytoplasmic proteins but leaves intact the cardiac sarcomeric acto-myosin apparatus. Myofibril preparations retain the ability to hydrolyze ATP in an Ca^2+ regulated manner. ATPase activities of such myofibril preparations in the presence and absence of compounds were assayed at Ca^2+ concentrations activating to a defined fraction of the maximal rate (i.e., 25%, 75%). Small molecule agents were assessed for their ability to inhibit the steady-state ATPase activity of bovine cardiac myofibrils using pyruvate kinase and lactate dehydrogenase (PK/LDH)-coupled enzyme system. This assay regenerates myosin-produced ADP into ATP by oxidizing NADH, producing an absorbance change at 340 nm. Prior to testing small molecule agents, the bovine cardiac myofibrils were assessed for their calcium responsiveness and the calcium concentration that achieves either a 50% (pCa50) or 75% (pCa75) activation of the myofibril system was chosen as the final condition for assessing the inhibitory activity of the small molecule agents. All enzymatic activity was measured in a buffered solution containing 12 mM PIPES (piperazine-N,N′-bis(2-ethanesulfonic acid), 2 mM magnesium chloride at pH 6.8 (PM 12 buffer). Final assay conditions were 1 mg/mL of bovine cardiac myofibrils, 4 U/mL pyruvate kinase, 6 U/mL lactate dehydrogenase, 50 μM ATP, 0.1 mg/mL BSA (bovine serum albumin), 10 ppm antifoam, 1 mM DTT, 0.5 mM NADH, 1.5 mM PEP, 0.6 mM EGTA, and an amount of CaCl2 sufficient to achieve either 50% or 75% activation of the myofibril ATPase activity. Results for compounds tested are provided in Table A. Compounds tested were prepared in accordance with the synthetic procedures described herein.

T1 sequence (Q9BE39 whole entry): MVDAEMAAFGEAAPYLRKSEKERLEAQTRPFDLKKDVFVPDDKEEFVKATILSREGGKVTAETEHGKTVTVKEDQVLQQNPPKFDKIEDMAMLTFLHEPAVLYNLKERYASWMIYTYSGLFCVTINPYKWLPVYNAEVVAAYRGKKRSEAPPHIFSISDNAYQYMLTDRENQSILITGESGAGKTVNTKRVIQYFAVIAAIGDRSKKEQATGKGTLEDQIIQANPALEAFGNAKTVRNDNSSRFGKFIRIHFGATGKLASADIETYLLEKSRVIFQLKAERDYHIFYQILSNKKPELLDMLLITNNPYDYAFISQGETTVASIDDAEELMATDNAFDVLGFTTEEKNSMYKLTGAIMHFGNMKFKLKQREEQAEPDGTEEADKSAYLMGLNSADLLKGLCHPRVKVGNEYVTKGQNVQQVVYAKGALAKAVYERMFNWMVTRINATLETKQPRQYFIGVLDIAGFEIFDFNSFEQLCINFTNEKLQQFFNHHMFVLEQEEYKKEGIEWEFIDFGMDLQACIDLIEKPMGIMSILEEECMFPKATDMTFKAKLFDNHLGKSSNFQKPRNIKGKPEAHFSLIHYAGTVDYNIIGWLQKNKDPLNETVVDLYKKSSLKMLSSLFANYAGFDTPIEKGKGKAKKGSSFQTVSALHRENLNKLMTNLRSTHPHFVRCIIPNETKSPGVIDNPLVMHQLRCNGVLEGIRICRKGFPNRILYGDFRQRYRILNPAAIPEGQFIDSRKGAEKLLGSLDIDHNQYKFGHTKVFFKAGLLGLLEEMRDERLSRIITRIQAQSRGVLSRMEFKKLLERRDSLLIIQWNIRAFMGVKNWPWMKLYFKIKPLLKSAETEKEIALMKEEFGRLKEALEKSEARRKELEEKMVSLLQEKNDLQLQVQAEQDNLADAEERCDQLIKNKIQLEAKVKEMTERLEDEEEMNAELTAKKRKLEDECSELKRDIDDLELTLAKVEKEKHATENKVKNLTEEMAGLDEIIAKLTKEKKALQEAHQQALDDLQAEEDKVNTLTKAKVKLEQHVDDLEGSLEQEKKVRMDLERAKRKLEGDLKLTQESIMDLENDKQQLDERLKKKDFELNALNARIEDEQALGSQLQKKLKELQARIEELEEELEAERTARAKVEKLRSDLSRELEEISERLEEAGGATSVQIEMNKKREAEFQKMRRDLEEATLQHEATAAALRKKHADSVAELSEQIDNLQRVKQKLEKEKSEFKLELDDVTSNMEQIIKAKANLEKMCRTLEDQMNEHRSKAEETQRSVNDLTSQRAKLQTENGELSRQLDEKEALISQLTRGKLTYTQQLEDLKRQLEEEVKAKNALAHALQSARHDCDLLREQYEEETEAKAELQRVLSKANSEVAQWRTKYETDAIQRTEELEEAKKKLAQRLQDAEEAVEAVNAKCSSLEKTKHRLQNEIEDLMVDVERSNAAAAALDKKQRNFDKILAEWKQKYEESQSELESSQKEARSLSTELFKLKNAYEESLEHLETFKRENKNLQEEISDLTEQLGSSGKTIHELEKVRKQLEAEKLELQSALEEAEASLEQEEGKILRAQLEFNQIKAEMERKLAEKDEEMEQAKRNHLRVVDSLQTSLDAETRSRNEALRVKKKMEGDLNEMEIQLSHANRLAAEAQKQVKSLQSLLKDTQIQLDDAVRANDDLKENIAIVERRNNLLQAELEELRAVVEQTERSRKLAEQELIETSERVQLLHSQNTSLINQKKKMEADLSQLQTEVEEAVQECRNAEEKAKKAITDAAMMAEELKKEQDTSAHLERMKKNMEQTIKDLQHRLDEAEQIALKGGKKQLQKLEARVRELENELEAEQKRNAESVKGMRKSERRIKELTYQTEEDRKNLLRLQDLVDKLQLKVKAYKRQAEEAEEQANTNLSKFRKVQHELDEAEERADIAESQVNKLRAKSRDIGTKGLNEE
T1 sequence (P85100 whole entry partner): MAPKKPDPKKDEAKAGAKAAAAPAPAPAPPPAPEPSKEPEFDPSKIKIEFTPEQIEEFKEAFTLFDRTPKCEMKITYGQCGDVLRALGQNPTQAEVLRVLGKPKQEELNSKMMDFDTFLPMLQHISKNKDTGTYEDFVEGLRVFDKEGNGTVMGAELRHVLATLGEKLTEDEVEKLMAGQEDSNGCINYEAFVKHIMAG
T1 sequence (Q3SZE5 whole entry partner): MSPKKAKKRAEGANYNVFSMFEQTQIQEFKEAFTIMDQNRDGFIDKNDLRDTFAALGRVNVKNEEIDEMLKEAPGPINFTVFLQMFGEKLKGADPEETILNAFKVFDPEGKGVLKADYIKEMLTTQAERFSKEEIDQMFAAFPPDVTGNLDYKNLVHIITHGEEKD

SMILES	CDMF75 IC15 [µM]	IC50 [µM]
c1cnc(NCc2ccc(-c3noc(C4CCC4)n3)cc2)cn1 [Compound 23, N-(4-(5-cyclobutyl-1,2,4-oxadiazol-3-yl)benzyl)pyrazin-2-amine]	0.3	1.4
CC(C)c1nc(-c2ccc([C@@H](C)Nc3cnccn3)cc2)no1 [Compound 35, (R)-N-(1-(4-(5-isopropyl-1,2,4-oxadiazol-3-yl)phenyl)ethyl)pyrazin-2-amine]	0.7	3
Cc1nc(-c2ccc(CNc3cnccn3)cc2)no1 [Compound 2, N-(4-(5-methyl-1,2,4-oxadiazol-3-yl)benzyl)pyrazin-2-amine]	0.8	4.3
Cc1cc(NCc2ccc(-c3noc(C)n3)cc2)ncn1 [Compound 4, 6-methyl-N-(4-(5-methyl-1,2,4-oxadiazol-3-yl)benzyl)pyrimidin-4-amine]	1.9	6.6
Cc1nc(-c2ccc(CNC(=O)Nc3ccccc3)cc2)no1 [Compound 56, 3-[[4-(5-methyl-1,2,4-oxadiazol-3-yl)phenyl]methyl]-1-phenylurea]	1.2	4.7
COC(=O)NCc1ccc(-c2noc(C)n2)cc1 [Compound 54, methyl (4-(5-methyl-1,2,4-oxadiazol-3-yl)benzyl)carbamate]	6.0	25.8
Cc1cnc(-c2ccc(CNc3cnccn3)cc2)o1 [Compound 49, N-[[4-(5-methyl-1,3-oxazol-2-yl)phenyl]methyl]pyrazin-2-amine]	0.3	28.6
Cc1noc(-c2ccc(CNc3cc(Cl)ncn3)cc2)n1 [Compound 18, 6-chloro-N-(4-(3-methyl-1,2,4-oxadiazol-5-yl)benzyl)pyrimidin-4-amine]	0.4	2.1
Cc1nc(-c2ccc(CNc3cnc(Cl)cn3)cc2)no1 [Compound 13, 5-chloro-N-(4-(5-methyl-1,2,4-oxadiazol-3-yl)benzyl)pyrazin-2-amine]	0.3	1.5
Cc1nc(-c2ccc(CNc3cc(C#N)ccn3)cc2)no1 [Compound 15, 2-((4-(5-methyl-1,2,4-oxadiazol-3-yl)benzyl)amino) isonicotinonitrile]	1.0	5.5
Cc1cc(-c2ccc(CNc3cc(=O)cc[nH]3)cc2)no1 [Compound 68, 2-([[4-(5-methyl-1,2-oxazol-3-yl)phenyl]methyl]amino)-1,4-dihydropyridin-4-one]	>39.2	> 39.2
C[C@@H](Nc1cnccn1)c1ccc(-c2noc(-c3ccsc3)n2)cc1 [Compound 43, (R)-N-(1-(4-(5-(thiophen-3-yl)-1,2,4-oxadiazol-3-yl)phenyl)ethyl)pyrazin-2-amine]	0.4	1.7
COc1cccc(NCc2ccc(-c3cc(C)on3)cc2)n1 [Compound 71, 6-methoxy-N-[[4-(5-methyl-1,2-oxazol-3-yl)phenyl]methyl]pyridin-2-amine]	>39.2	> 39.2
Cc1nc(-c2ccc(CNc3ccncn3)cc2)no1 [Compound 3, N-(4-(5-methyl-1,2,4-oxadiazol-3-yl)benzyl)pyrimidin-4-amine]	3.6	27.7
C[C@@H](Nc1cnccn1)c1ccc(-c2noc(-c3cccs3)n2)cc1 [Compound 40, (R)-N-(1-(4-(5-(thiophen-2-yl)-1,2,4-oxadiazol-3-yl)phenyl)ethyl)pyrazin-2-amine]	0.3	1.1
Cc1nc(-c2ccc(CNc3cc(C4CC4)ncn3)cc2)no1 [Compound 6, 6-cyclopropyl-N-(4-(5-methyl-1,2,4-oxadiazol-3-yl)benzyl)pyrimidin-4-amine]		27
Cc1nc(-c2ccc(CNc3ccc(Cl)cn3)cc2)no1 [Compound 20, 5-chloro-N-(4-(5-methyl-1,2,4-oxadiazol-3-yl)benzyl)pyridin-2-amine]	1.5	5.2
c1cnc(NCc2ccc(-c3noc(C4CC4)n3)cc2)cn1 [Compound 22, N-(4-(5-cyclopropyl-1,2,4-oxadiazol-3-yl)benzyl)pyrazin-2-amine]	0.4	1.8
C[C@@H](Nc1cnccn1)c1ccc(-c2noc(C3CC3)n2)cc1 [Compound 31, (R)-N-(1-(4-(5-cyclopropyl-1,2,4-oxadiazol-3-yl)phenyl)ethyl)pyrazin-2-amine]	0.4	1.51
Cc1nc(-c2ccc(C(C)Nc3cc(Cl)ncn3)cc2)no1 (stereo not shown) [Compound 21, 6-chloro-N-(1-(4-(5-methyl-1,2,4-oxadiazol-3-yl)phenyl)ethyl)pyrimidin-4-amine]	2.2	12.8
Cc1nc(-c2ccc(CNc3cncc(Cl)n3)cc2)no1 [Compound 1, 6-chloro-N-(4-(5-methyl-1,2,4-oxadiazol-3-yl)benzyl)pyrazin-2-amine]	1.4	8.1
Fc1cc(CNc2cnccn2)ccc1-c1noc(C(F)(F)F)n1 [Compound 42, N-(3-fluoro-4-(5-(trifluoromethyl)-1,2,4-oxadiazol-3-yl)benzyl)pyrazin-2-amine]	0.8	4.8
Cc1cc(-c2ccc(CNc3cccc(=O)[nH]3)cc2)no1 [Compound 61, 6-([[4-(5-methyl-1,2-oxazol-3-yl)phenyl]methyl]amino)-1,2-dihydropyridin-2-one]	2.4	10.2
C[C@@H](Nc1cnccn1)c1ccc(-c2noc(C3CCC3)n2)cc1 [Compound 32, (R)-N-(1-(4-(5-cyclobutyl-1,2,4-oxadiazol-3-yl)phenyl)ethyl)pyrazin-2-amine]	0.3	1.4
C[C@@H](Nc1cnccn1)c1ccc(-c2noc(-c3ccccc3)n2)cc1 [Compound 37, (R)-N-(1-(4-(5-phenyl-1,2,4-oxadiazol-3-yl)phenyl)ethyl)pyrazin-2-amine]	1.3	5.6
Cc1cc(-c2ccc(CNc3ccn(C)n3)cc2)no1 [Compound 64, 1-methyl-N-(4-(5-methylisoxazol-3-yl)benzyl)-1H-pyrazol-3-amine]	7.7	> 39.2
Cc1cc(-c2ccc(CNc3cc[nH]n3)cc2)no1 [Compound 62, N-(4-(5-methylisoxazol-3-yl)benzyl)-1H-pyrazol-3-amine]	5.0	23
Cc1nc(-c2ccc(CNc3cc(C(F)(F)F)ncn3)cc2)no1 [Compound 5, N-(4-(5-methyl-1,2,4-oxadiazol-3-yl)benzyl)-6-(trifluoromethyl)pyrimidin-4-amine]		3.7
Cc1nc(-c2ccc(CNc3cc(Cl)ncn3)cc2)no1 [Compound 9, 6-chloro-N-(4-(5-methyl-1,2,4-oxadiazol-3-yl)benzyl)pyrimidin-4-amine]	0.3	1.2
Cc1nc(-c2ccc(CNc3cc(C#N)ncn3)nc2)no1 [Compound 17, 6-(((5-(5-methyl-1,2,4-oxadiazol-3-yl)pyridin-2-yl)methyl)amino)pyrimidine-4-carbonitrile]	2.9	18.9
